# Laboratory results taken from US11667879B2, “Dynamic incubator system and method” (FOREVER LABS, INC., priority 2019, dated 2023).
# Tested on: rat 9 L gliosarcoma cells
# Experiment: cell proliferation experiment, 9 L gliosarcoma cells
# Type: cell-based
# Settings: 10 uM Fisetin for 24 hours, then 48 hours without; 72 hours, dynamic incubation vs constant
# Procedure: Referring now to FIG. 11, another graph illustrating the results of another cell proliferation experiment is depicted. In this experiment, rat 9 L gliosarcoma cells after 72 hours of culture in controlled temperature and gas concentration (constant 37° C. and 5% CO2) are compared with dynamic incubation using the dynamic incubator system 10 (cycling 37° C. and 5% CO2 for 8 hrs., then 38° C. and 5.5% CO2 for 30 min.). The experiment included 10 uM Fisetin. In addition, 100,000 9 L cells were plated in a T75 flask, containing 10 mL of α-MEM medium, with 10 uM Fisetin. In addition, the medium was refreshed after 24 hours without Fisetin, and the cells were then cultured for a 48 additional hours. […] P-values are from t-test compared to control.
smiles,measurement,value
O=c1c(O)c(-c2ccc(O)c(O)c2)oc2cc(O)ccc12 [Fisetin],9 L cell numbers,decreases cell numbers
